The data set in a line: Kinetic solubility assay in PBS pH 7.4. The data set is classed as physicochemical. The note with it: PBS pH 7.4, 200 μM test conc, 1% DMSO, 2 h at 25 °C. The procedure: The plate was incubated for 2 h at 25 °C. The precipitates on the incubation plate were removed by filtration and the filtrates were quantified by LC-MS/MS. Calibration curves were prepared for each compound by using 5–6 points. Samples were analyzed by UV–vis.

Where [1] appears, read: phosphate buffered saline, aqueous buffer, kinetic from dmso stock.

In general, solubility (kinetic) refers to the concentration staying in solution when a stock, usually in DMSO, is diluted into the medium.

In brackets after ≈: the same amount, converted by molar mass.

In turn, `O=C(O)Cc1ccccc1Nc1c(Cl)cccc1Cl` [Diclofenac Sodium, reference compound] yielded a solubility (kinetic) at 2 h under setting [1] of 200 µM.

With `CC/C(=C(/CC)c1ccc(O)cc1)c1ccc(O)cc1` [Diethylstilbesterol, reference compound], the solubility (kinetic) at 2 h was 9.98 µM (≈ 2.68 µg/mL). `O=C(CCCN1CCC(O)(c2ccc(Cl)cc2)CC1)c1ccc(F)cc1` [Haloperidol, reference compound]: the kinetic solubility at 2 h under setting [1] stood at 30.3 µM (≈ 11.4 µg/mL).

These data come from paper PMC12481576, “Barbituric Acid Derivatives as Covalent Inhibitors of Leishmania braziliensis Dihydroorotate Dehydrogenase” (Journal of Medicinal Chemistry, 2025).
